Where no end group is shown, it is not given here. [ ]: non-standard residue; d: D form. Bpa = N[C@@H](Cc1ccc(C(=O)c2ccccc2)cc1)C(=O)O

For one series, the system named is PP1. The series is described as follows: Streptavidin pull-down of PP1 with biotinylated peptides from cell lysates. Type of series: binding, human. The note with it: HEK293 and U2OS cell lysates, streptavidin-coated Sepharose beads, immunoblot.
Another series deals with PP2A. The series is described as follows: Streptavidin pull-down of PP2A with biotinylated peptides from cell lysates. Conditions: U2OS cell lysates, streptavidin beads, immunoblot. The class given is binding, human.
The next series deals with U2OS cells. Nature of the series: Cell viability assay. The class given is cell-based, human. Conditions: conditions of the in-cell experiments.

On to RRKRPKRKRKNARATAAEAAEII [PDP2m], for which the “Co-sedimentation of PP1 in pull-down” value with PP1 was “co-precipitated neither PP1 nor PP2A”. The “Co-precipitation of PP2A in pull-down” value in the series with PP2A is given as “co-precipitated neither PP1 nor PP2A”.

For the substance RRKRPKRKRKNARATA[Bpa]EAAEII [PDP3m], the “Cytotoxicity under the experimental conditions” value with U2OS cells is reported as “neither PDP3 nor PDP3m showed any cytotoxicity”.

(Values after publication PMC3531619 (Angewandte Chemie (International Ed. in English), 2012).)
